Results on 49 compounds are retold here after ChEMBL document CHEMBL2029218, “Structure-based design of novel class II c-Met inhibitors: 2. SAR and kinase selectivity profiles of the pyrazolone series” (J Med Chem, 2012).

Assay [1] concerns the target Insulin-like growth factor 1 receptor (Homo sapiens, UniProt P08069). As to the kind of experiment: Inhibition of IGF1R by HTRF assay.
Assay [2] has as its target Fibroblast growth factor receptor 1 (Homo sapiens, UniProt P11362). The assay can be described thus: Inhibition of FGFRK.
Assay [3] concerns the target Serine/threonine-protein kinase pim-2 (Homo sapiens, UniProt Q9P1W9). As to the kind of experiment: Inhibition of PIM2.
In assay [4] the target is Ribosomal protein S6 kinase beta-1 (Homo sapiens, UniProt P23443). As to the kind of experiment: Inhibition of p70S6K.
Assay [5] deals with Serine/threonine-protein kinase pim-1 (Homo sapiens, UniProt P11309). As to the kind of experiment: Inhibition of PIM1.
Assay [6] addresses Mitogen-activated protein kinase 14 (Homo sapiens, UniProt Q16539). The assay can be described thus: Inhibition of p38alpha.
The target in assay [7] is RAC-alpha serine/threonine-protein kinase (Homo sapiens, UniProt P31749). As to the kind of experiment: Inhibition of PKBalpha.
Assay [8] deals with Tyrosine-protein kinase JAK3 (Homo sapiens, UniProt P52333). The assay can be described thus: Inhibition of JAK3.
Assay [9] has as its target RAC-beta serine/threonine-protein kinase (Homo sapiens, UniProt P31751). As to the kind of experiment: Inhibition of PKBbeta.
The target of another assay is Aurora kinase A (Homo sapiens, UniProt O14965). As to the kind of experiment: Inhibition of aurora-1.
Assay [10] concerns the target Ribosomal protein S6 kinase alpha-5 (Homo sapiens, UniProt O75582). The assay can be described thus: Inhibition of MSK1.
The target of assay [11] is Tyrosine-protein kinase JAK2 (Homo sapiens, UniProt O60674). As to the kind of experiment: Inhibition of JAK2.
For assay [12], the target named is Mitogen-activated protein kinase 3 (Homo sapiens, UniProt P27361). The assay can be described thus: Inhibition of ERK1.
The target of assay [13] is Mast/stem cell growth factor receptor Kit (Homo sapiens, UniProt P10721). As to the kind of experiment: Inhibition of c-KIT.
For assay [14], the target named is Tyrosine-protein kinase JAK1 (Homo sapiens, UniProt P23458). The assay can be described thus: Inhibition of JAK1.
Another assay concerns the target Angiopoietin-1 receptor (Homo sapiens, UniProt Q02763). The assay can be described thus: Inhibition of TIE2.
The target in assay [15] is Vascular endothelial growth factor receptor 2 (Homo sapiens, UniProt P35968). The assay can be described thus: Inhibition of VEGFR2 by HTRF assay.
In assay [16] the target is Hepatocyte growth factor receptor (Homo sapiens, UniProt P08581).
Description: Inhibition of c-Met by HTRF assay
For assay [17], the target named is Proto-oncogene tyrosine-protein kinase receptor Ret (Homo sapiens, UniProt P07949). As to the kind of experiment: Inhibition of RET.
The target of assay [18] is Mitogen-activated protein kinase 9 (Homo sapiens, UniProt P45984). The assay can be described thus: Inhibition of JNK2.
Assay [19] concerns the target cAMP-dependent protein kinase catalytic subunit alpha (Homo sapiens, UniProt P17612). As to the kind of experiment: Inhibition of PKAalpha.
Assay [20] addresses Cyclin-dependent kinase 5/CDK5 activator 1 (Homo sapiens, UniProt Q00535).
Assay [21] addresses Macrophage-stimulating protein receptor (Homo sapiens, UniProt Q04912). The assay can be described thus: Inhibition of RON by HTRF assay. On the technique in general: TR-FRET usually uses a lanthanide donor and a delayed reading to cut background.

Bounds are passed on as bounds.

Usually Ki stands for the equilibrium dissociation constant of an inhibitor or competing ligand from its target. A higher Ki goes with weaker binding. Consider `CC[C@H](O)Cn1c(C)c(C(=O)Nc2ccc(Oc3ccnc4cc(OC)ccc34)c(F)c2)c(=O)n1-c1ccccc1`, for which, in assay [1], the Ki is 575 nM. A word on the IC50: it is the midpoint of a concentration-inhibition curve. On to `COc1cc2nccc(Oc3ccc(NC(=O)c4c(C)n(C)n(-c5ccccc5)c4=O)cc3F)c2cc1OC`, for which the IC50 was 1000 nM in [2]; 25000 nM in assay [3]; 1000 nM in [4]; 25000 nM in [5]; 1000 nM in assay [6]; 10000 nM in assay [7]. Besides, the IC50 in [8] was 10000 nM; in [9], 25000 nM; against Aurora kinase A, 1000 nM; in [10], 10000 nM; in assay [11], 1000 nM; in assay [12], 25000 nM. In addition, the IC50 stood at 100 nM in assay [13], 10000 nM in assay [14] and 100 nM on Angiopoietin-1 receptor. For `COc1cc2nccc(Oc3ccc(NC(=O)c4c(C)n(C)n(-c5ccccc5)c4=O)cc3F)c2cc1Br`, the values for the Ki in assay [15] and in assay [1] were 78.9 nM and 149 nM, respectively. Take `COc1cc2nccc(Oc3ccc(NC(=O)c4c(C)n(C)n(-c5ccccc5)c4=O)cc3F)c2cc1C`: the Ki in [1] was found to be 146 nM. In turn, `CCc1cc2c(Oc3ccc(NC(=O)c4c(C)n(C)n(-c5ccccc5)c4=O)cc3F)ccnc2cc1OC` registered an inhibition constant Ki in assay [1] of 70.2 nM. Turning to `COc1cc2nccc(Oc3ccc(NC(=O)c4c(C)n(C)n(-c5ccccc5)c4=O)cn3)c2cc1OC`, the affinity in [1], expressed as Ki, was 1570 nM. Regarding `COc1cc2nccc(Oc3ccc(NC(=O)c4c(C)n(C)n(-c5ccccc5)c4=O)c(Cl)c3)c2cc1OC`, the inhibitory constant (Ki) was 35.9 nM in assay [15] and 26.5 nM in assay [1].

Turning to `COc1ccc2c(Oc3ccc(NC(=O)c4c(C)n(C)n(-c5ccccc5)c4=O)c(OC)c3)ccnc2c1`, the inhibition constant Ki turned out to be 702 nM in assay [15] and 93.6 nM in assay [1].

For the compound `COc1cc2nccc(Oc3ccc(NC(=O)c4c(C)n(C)n(-c5ccccc5)c4=O)nc3)c2cc1OC`, affinity in [1] was put at a Ki of 233 nM.

`COc1ccc2c(Oc3ccc(NC(=O)c4c(C)n(C)n(-c5ccccc5)c4=O)nc3)ccnc2c1` had a Ki in [1] of 618 nM.

In the case of `COc1ccc2c(Oc3cnc(NC(=O)c4c(C)n(C)n(-c5ccccc5)c4=O)nc3)ccnc2c1`, the figures for the Ki in assay [15], in assay [1] and in [16] were 1630 nM, 217 nM and 16.7 nM, respectively. In the case of `COc1ccc2c(Oc3ccc(NC(=O)c4c(CN)n(C)n(-c5ccccc5)c4=O)cc3F)ccnc2c1`, the Ki stood at 541 nM in assay [15] and 928 nM in assay [1].

In assay [1], `COc1ccc2c(Oc3ccc(NC(=O)c4c(CNC(=O)OC(C)(C)C)n(C)n(-c5ccccc5)c4=O)cc3F)ccnc2c1` displayed an inhibition constant Ki of more than 6600 nM. On the same count and under the same terms, under `CCN(C)Cc1c(C(=O)Nc2ccc(Oc3ccnc4cc(OC)ccc34)c(F)c2)c(=O)n(-c2ccccc2)n1C` stands 744 nM; under `COc1ccc2c(Oc3ccc(NC(=O)c4c(CN5CCCC5)n(C)n(-c5ccccc5)c4=O)cc3F)ccnc2c1`, 1800 nM. The same measure, in the same setting: under `COc1ccc2c(Oc3ccc(NC(=O)c4c(CN5CCCC5)n(C)n(-c5ccccc5)c4=O)nc3)ccnc2c1` stands 887 nM.

The compound `COc1ccc2c(Oc3ccc(NC(=O)c4c(C(C)(C)N)n(C)n(-c5ccccc5)c4=O)cc3F)ccnc2c1` gave a Ki in [1] of 3100 nM. As for `COc1ccc2c(Oc3ccc(NC(=O)c4c([C@@H]5CCCN5)n(C)n(-c5ccccc5)c4=O)cc3F)ccnc2c1`, the results for the Ki in [15] and in assay [1] were 2240 nM and 680 nM, respectively. As for `COc1ccc2c(Oc3ccc(NC(=O)c4c([C@@H]5CCCN5)n(C)n(-c5ccccc5)c4=O)nc3)ccnc2c1`, the Ki in [15] was more than 6600 nM; in assay [1], 948 nM. In assay [1], `COc1ccc2c(Oc3ccc(NC(=O)c4c(C5CCOCC5)n(C)n(-c5ccccc5)c4=O)cc3F)ccnc2c1` registered a Ki of 144 nM. In the case of `COc1ccc2c(Oc3ccc(NC(=O)c4c(C5CCOCC5)n(C)n(-c5ccccc5)c4=O)nc3)ccnc2c1`, the figures for the Ki in assay [15] and in assay [1] were 2720 nM and 42.7 nM, respectively. On to `COc1ccc2c(Oc3ccc(NC(=O)c4c(-c5ccncc5)n(C)n(-c5ccccc5)c4=O)nc3)ccnc2c1`, for which the Ki is more than 6600 nM in assay [15] and 35.9 nM in assay [1]. As to `COc1ccc2c(Oc3ccc(NC(=O)c4c(-c5ccccn5)n(C)n(-c5ccccc5)c4=O)nc3)ccnc2c1`, the values for the Ki in assay [15] and in [1] were 1380 nM and 18.5 nM, respectively.

Consider `COc1ccc2c(Oc3ccc(NC(=O)c4c(-c5cccnc5)n(C)n(-c5ccccc5)c4=O)nc3)ccnc2c1`, for which the Ki in assay [15] is 2830 nM; in assay [1], 27 nM. Consider `COc1ccc2c(Oc3ccc(NC(=O)c4c(-c5cnccn5)n(C)n(-c5ccccc5)c4=O)nc3)ccnc2c1`, for which the values for the Ki in assay [15] and in [1] were 4730 nM and 87.7 nM, respectively.

Turning to `COc1ccc2c(Oc3ccc(NC(=O)c4c(-c5cc(C)on5)n(C)n(-c5ccccc5)c4=O)nc3)ccnc2c1`, the values for the Ki in assay [15] and in assay [1] were 501 nM and 30.9 nM, respectively. Taken in the same sequence, the figures for `COc1ccc2c(Oc3ccc(NC(=O)c4c(-c5csc(C)n5)n(C)n(-c5ccccc5)c4=O)nc3)ccnc2c1` were 588 nM and 24.8 nM. For the compound `CCn1c(C)c(C(=O)Nc2ccc(Oc3ccnc4cc(OC)ccc34)c(F)c2)c(=O)n1-c1ccccc1`, in assay [1], the affinity corresponds to a Ki of 557 nM.

`CCn1c(C)c(C(=O)Nc2ccc(Oc3ccnc4cc(OC)ccc34)cn2)c(=O)n1-c1ccccc1` displayed a Ki in assay [1] of 708 nM. On the same count and under the same terms, under `CCCn1c(C)c(C(=O)Nc2ccc(Oc3ccnc4cc(OC)ccc34)cn2)c(=O)n1-c1ccccc1` stands 730 nM; under `C=C(C)Cn1c(C)c(C(=O)Nc2ccc(Oc3ccnc4cc(OC)ccc34)c(F)c2)c(=O)n1-c1ccccc1`, 249 nM; under `COc1ccc2c(Oc3ccc(NC(=O)c4c(C)n(CCN)n(-c5ccccc5)c4=O)cc3F)ccnc2c1`, 872 nM. Compound `COc1ccc2c(Oc3ccc(NC(=O)c4c(C)n(CCO)n(-c5ccccc5)c4=O)cc3F)ccnc2c1` came in with an inhibitory constant (Ki) in assay [1] of 864 nM.

In [1], `COc1ccc2c(Oc3ccc(NC(=O)c4c(C)n(CCO)n(-c5ccccc5)c4=O)nc3)ccnc2c1` yielded a Ki of 1100 nM. On the same count and under the same terms, under `COCCn1c(C)c(C(=O)Nc2ccc(Oc3ccnc4cc(OC)ccc34)cn2)c(=O)n1-c1ccccc1` stands 2890 nM.

In assay [1], `COc1ccc2c(Oc3ccc(NC(=O)c4c(C)n(CC(C)O)n(-c5ccccc5)c4=O)nc3)ccnc2c1` (stereo unspecified) displayed an inhibitory constant (Ki) of 1290 nM. Take `COc1ccc2c(Oc3ccc(NC(=O)c4c(C)n(CC(O)C(C)C)n(-c5ccccc5)c4=O)cc3F)ccnc2c1` (stereo unspecified): the Ki in assay [1] was found to be 637 nM. In the case of `COc1ccc2c(Oc3ccc(NC(=O)c4c(C)n(CC(O)CN)n(-c5ccccc5)c4=O)cc3F)ccnc2c1` (stereo unspecified), the affinity in assay [1], expressed as Ki, was 104 nM.

In [1], `COc1ccc2c(Oc3ccc(NC(=O)c4c(C)n(CC5CNC(=O)O5)n(-c5ccccc5)c4=O)cc3F)ccnc2c1` (stereo unspecified) displayed a Ki of 1660 nM. `COc1ccc2c(Oc3ccc(NC(=O)c4c(C)n(CC(C)(C)O)n(-c5ccccc5)c4=O)cc3F)ccnc2c1` yielded a Ki in assay [1] of 887 nM. Compound `COc1ccc2c(Oc3ccc(NC(=O)c4c(C)n(CC(C)C)n(-c5ccccc5)c4=O)cc3F)ccnc2c1` showed a Ki in [1] of 915 nM.

Consider `COc1ccc2c(Oc3ccc(NC(=O)c4c(C)n(C)n(-c5ccccc5)c4=O)cc3F)ccnc2c1`, for which, in assay [1], the affinity, expressed as Ki, was 178 nM. The same measure, in the same setting: under `CCCn1c(C)c(C(=O)Nc2ccc(Oc3ccnc4cc(OC)ccc34)c(F)c2)c(=O)n1-c1ccccc1` stands 419 nM; under `COc1ccc2c(Oc3ccc(NC(=O)c4c(C)n(C[C@H](C)O)n(-c5ccccc5)c4=O)cc3F)ccnc2c1`, 695 nM. For the compound `COc1ccc2c(Oc3ccc(NC(=O)c4c(C)n(CC(C)(C)O)n(-c5ccccc5)c4=O)nc3)ccnc2c1`, the IC50 in [2] came to 25000 nM; in [3], 25000 nM; in assay [17], 25000 nM; in assay [18], 100000 nM; in [19], 100000 nM; in [4], 25000 nM. In addition, the 50% inhibitory concentration (IC50) is 25000 nM in assay [5]; 100000 nM in [6]; 10 nM in assay [16]; 10000 nM in assay [7]; 25000 nM in assay [9]; 100000 nM in assay [10]. Further, the IC50 in assay [20] was 100000 nM; in assay [11] it was 25000 nM; in [12] it was 100000 nM; in assay [13], 10000 nM; in [21], 10 nM; in [14], 25000 nM. The compound further returned a Ki in assay [16] of 1 nM. As to `COc1ccc2c(Oc3ccc(NC(=O)c4c(C)n(C[C@@H](C)O)n(-c5ccccc5)c4=O)cc3F)ccnc2c1`, affinity in assay [1] was put at a Ki of 744 nM. `COc1ccc2c(Oc3ccc(NC(=O)c4c(C5CCCO5)n(C)n(-c5ccccc5)c4=O)cc3F)ccnc2c1` (racemic) registered a Ki in assay [1] of 190 nM. For the compound `COc1ccc2c(Oc3ccc(NC(=O)c4c(C5CCOC5)n(C)n(-c5ccccc5)c4=O)cc3F)ccnc2c1` (racemic), in assay [1], the Ki worked out at 250 nM. Same read-out and setting: with `COc1ccc2c(Oc3ccc(NC(=O)c4c(C)n(CC(C)O)n(-c5ccccc5)c4=O)cc3F)ccnc2c1` (racemic) the figure was 1330 nM.
